Results reported in ChEMBL document CHEMBL1201862, “PubChem BioAssay data set” (2004).
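Briefly, cells in 96-well plates were exposed to five compound concentrations for 48 h, and endpoints were estimated by linear interpolation. At the GI50, growth is halved.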 The source made the active and inactive calls. Cut-off read from the data, not from the text of the source: active = GI50 up to about 1.1 µM and inactive = higher.

Key:
Assay in all cases: DTP human tumour cell line panel, 48 h
HCT-116 = tested on: HCT-116
OVCAR-3 = tested on: OVCAR-3
HL-60 = tested on: HL-60
BT-549 = tested on: BT-549
UO-31 = tested on: UO-31
SF-539 = tested on: SF-539
SNB-19 = tested on: SNB-19
PC-3 = tested on: PC-3
Hs-578T = tested on: Hs-578T
SW-620 = tested on: SW-620
HOP-92 = tested on: HOP-92
M14 = tested on: M14
A549 = tested on: A549
MDA-MB-231 = tested on: MDA-MB-231
COLO 205 = tested on: COLO 205
UACC-62 = tested on: UACC-62
NCI-H23 = tested on: NCI-H23
HCC 2998 = tested on: HCC 2998
NCI-H460 = tested on: NCI-H460
SNB-75 = tested on: SNB-75

SMILES | GI50 (HCT-116) | GI50 (OVCAR-3) | GI50 (HL-60) | GI50 (BT-549) | GI50 (UO-31) | GI50 (SF-539) | GI50 (SNB-19) | GI50 (PC-3) | GI50 (Hs-578T) | GI50 (SW-620) | GI50 (HOP-92) | GI50 (M14) | GI50 (A549) | GI50 (MDA-MB-231) | GI50 (COLO 205) | GI50 (UACC-62) | GI50 (NCI-H23) | GI50 (HCC 2998) | GI50 (NCI-H460) | GI50 (SNB-75)
O[C@@H]1[C@H](OC2c3ccccc3-c3ccccc32)[C@H](OCc2ccccc2)[C@@H]2OC[C@H]1O2 | 41.5 µM (inactive) | > 100 µM (inactive) | > 100 µM (inactive) | > 100 µM (inactive) | > 100 µM (inactive) | 23 µM (inactive) | 58.2 µM (inactive) | 63.2 µM (inactive) | 43.4 µM (inactive) | > 100 µM (inactive) | > 100 µM (inactive) | > 100 µM (inactive) | 34.6 µM (inactive) | 51.3 µM (inactive) | > 100 µM (inactive) | > 100 µM (inactive) | > 100 µM (inactive) | 75.7 µM (inactive) | – | –
COc1ccc([C@H](NC(=O)c2ccccc2)[C@@H](O)C(=O)O[C@H]2C[C@@]3(O)C(OC(=O)c4ccccc4)C4[C@](C)(C(=O)[C@H](OC(C)=O)C(=C2C)C3(C)C)[C@@H](O)C[C@H]2OC[C@@]42OC(C)=O)cc1 (stereo partly drawn) | < 0.001 µM (active) | – | < 0.001 µM (active) | 0.0299 µM (active) | 0.126 µM (active) | 0.00112 µM (active) | 0.0368 µM (active) | 0.00255 µM (active) | < 0.001 µM (active) | 0.00508 µM (active) | 0.0586 µM (active) | 0.00604 µM (active) | 0.00618 µM (active) | > 10 µM (inactive) | 0.00274 µM (active) | 0.00136 µM (active) | 0.00236 µM (active) | 0.00301 µM (active) | 0.00931 µM (active) | < 0.001 µM (active)
CC(C)(C)C(=O)CC1(O)C=C(O)C(O)(CC(=O)C(C)(C)C)O1 (stereo not drawn) | 4.71 µM (inactive) | 59.4 µM (inactive) | 24.9 µM (inactive) | 66.4 µM (inactive) | 29.4 µM (inactive) | 18.8 µM (inactive) | 36.8 µM (inactive) | 44.8 µM (inactive) | 35.2 µM (inactive) | – | 29.9 µM (inactive) | 15.8 µM (inactive) | 61.7 µM (inactive) | 55 µM (inactive) | 21.7 µM (inactive) | 26.5 µM (inactive) | 22.1 µM (inactive) | > 100 µM (inactive) | 10.1 µM (inactive) | –
O=C(O)CSCC(=O)c1ccccc1 | > 100 µM (inactive) | > 100 µM (inactive) | > 100 µM (inactive) | > 100 µM (inactive) | > 100 µM (inactive) | > 100 µM (inactive) | > 100 µM (inactive) | > 100 µM (inactive) | > 100 µM (inactive) | > 100 µM (inactive) | > 100 µM (inactive) | > 100 µM (inactive) | > 100 µM (inactive) | > 100 µM (inactive) | > 100 µM (inactive) | > 100 µM (inactive) | > 100 µM (inactive) | – | > 100 µM (inactive) | > 100 µM (inactive)
COC(=O)C(Cc1ccccc1)NC(=O)C(CCCNC(=N)N)NC(=O)OCc1ccccc1 (stereo not drawn) | > 100 µM (inactive) | > 100 µM (inactive) | > 100 µM (inactive) | > 100 µM (inactive) | > 100 µM (inactive) | – | > 100 µM (inactive) | > 100 µM (inactive) | > 100 µM (inactive) | > 100 µM (inactive) | > 100 µM (inactive) | > 100 µM (inactive) | > 100 µM (inactive) | > 100 µM (inactive) | > 100 µM (inactive) | > 100 µM (inactive) | > 100 µM (inactive) | > 100 µM (inactive) | > 100 µM (inactive) | > 100 µM (inactive)
